Read-outs that look alike come from different tables or passages of the source.
What was measured:
NTSR1 [1] = target: T1, NTSR1 (Homo sapiens, UniProt P30989); test: Gq protein activation by TGFα shedding assay; format: cell-based; conditions: for effect on NTS-induced Gq activation: in combination with NTS; for Gq activation: ligand alone
NTSR1 [2] = target: T1, NTSR1; test: Confocal β-arrestin2 translocation assay in U2OS cells; format: cell-based; conditions: for β-arrestin2 translocation: NTSR1-expressing U2OS cells, ligand alone
NTSR1 [3] = target: T1, NTSR1; test: Apo-aequorin calcium assay; format: cell-based; conditions: for effect on NTS-induced Ca2+ mobilization: in combination with NTS (10 nM); for Ca2+ mobilization: ligand alone
NTSR1 [4] = target: T1, NTSR1; test: Phosphorylated ERK detection by western blot; format: cell-based
NTSR1 [5] = target: T1, NTSR1; test: NTSR1 internalization assay; format: cell-based
NTSR1 [6] = target: T1, NTSR1; test: Radioligand binding to NTSR1-containing HEK293T cell membranes
NTSR1 [7] = target: T1, NTSR1; test: IP3 BRET assay; format: cell-based; conditions: for effect on NTS-induced IP3 production: in combination with NTS; for IP3 generation: ligand alone, SBI-553 10 μM, SR142948A 10 μM
NTSR1 [8] = target: T1, NTSR1; test: BRET β-arrestin2 recruitment assay in HEK293T cells; format: cell-based
C57BL/6J mice [9] = test: Stimulant-induced hyperlocomotion in the open field; format: in vivo, mouse; conditions: 12 mg/kg i.p.
NTSR1 [10] = target: T1, NTSR1; test: Phosphorylated NTSR1 detection by western blot; format: cell-based; conditions: NTSR1-expressing HEK293T cells; NTS 10 nM, SBI-553 10 μM, SR142948A 10 μM
β-arrestin2 KO mice = format: in vivo, mouse; conditions: 12 mg/kg i.p.; for cocaine-induced hyperlocomotion: cocaine 30 mg/kg i.p.
C57BL/6J mice [11] = test: Intravenous cocaine self-administration; format: in vivo, mouse
DAT KO mice = test: L-DOPA-induced restoration of locomotion in dopamine depleted DAT KO mice; format: in vivo, mouse; conditions: 12 mg/kg i.p., AMPT dopamine-depleted DAT KO mice
C57BL/6J mice [12] = test: Blood pressure measurement; format: in vivo, mouse; conditions: SBI-553 12 mg/kg i.p.; PD149163 0.3 mg/kg i.p.; 60 minutes post-treatment
C57BL/6J mice [13] = test: Contact righting test; format: in vivo, mouse; conditions: PD149163 i.p. 120 min, SBI-553 i.p. (up to 30 mg/kg) 30 min prior to testing
C57BL/6J mice [14] = test: Core body temperature measurement; format: in vivo, mouse; conditions: PD149163 0.1 – 1 mg/kg i.p.; SBI-553 2–30 mg/kg i.p.
C57BL/6J mice [15] = test: Horizontal wire test; format: in vivo, mouse; conditions: PD149163 i.p. 120 min, SBI-553 i.p. (up to 30 mg/kg) 30 min prior to testing
C57BL/6J mice [16] = test: Methamphetamine conditioned place preference; conditions: 12 mg/kg i.p. 15 min prior to test
C57BL/6J mice [17] = test: Oral SBI-553 modulation of PD149163-induced hypothermia and hypoactivity; format: in vivo, mouse; conditions: SBI-553 10, 30, 100 mg/kg p.o. 30 min prior to PD149163 i.p.
[18] = HEK293T cells expressing human NTSR1, SBI-553 10 μM, SR142948A 10 μM
[19] = low-concentration NTS, maximal levels not altered
[20] = 12 mg/kg i.p., cocaine 0.1 mg/kg/infusion
[21] = [3H]NTS saturation binding with SBI-553 0.01 – 10 μM

T1 sequence (P30989 whole entry): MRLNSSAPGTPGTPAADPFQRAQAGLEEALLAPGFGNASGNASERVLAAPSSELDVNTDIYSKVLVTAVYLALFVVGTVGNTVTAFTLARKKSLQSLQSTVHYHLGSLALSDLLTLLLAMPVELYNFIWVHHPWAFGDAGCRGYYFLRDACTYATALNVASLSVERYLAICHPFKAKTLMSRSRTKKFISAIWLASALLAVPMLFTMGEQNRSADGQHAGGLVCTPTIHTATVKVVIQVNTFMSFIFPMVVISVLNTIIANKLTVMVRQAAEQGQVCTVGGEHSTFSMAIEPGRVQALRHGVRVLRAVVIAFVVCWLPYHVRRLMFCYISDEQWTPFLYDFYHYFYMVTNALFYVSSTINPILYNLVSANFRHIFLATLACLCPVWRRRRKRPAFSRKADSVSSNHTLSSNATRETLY

COc1cccc(OC)c1-c1cc(C(=O)NC2(C(=O)O)C3CC4CC(C3)CC2C4)nn1-c1ccc(C(=O)N(C)CCCN(C)C)cc1C(C)C (stereo not drawn) [SR142948A, reference compound]
effect on NTS-induced Gq activation (NTSR1 [1]): attenuated
Gq activation (NTSR1 [1]): neither SBI-553 nor the antagonist SR142948A had any effect
block of NTS- and SBI-553-induced β-arrestin2 translocation (NTSR1 [2]; NTS 5 nM or SBI-553 10 μM): antagonized NTS-induced, but not SBI-553-induced
β-arrestin2 translocation (NTSR1 [2]): without effect
effect on NTS-induced Ca2+ mobilization (NTSR1 [3]): attenuated
Ca2+ mobilization (NTSR1 [3]): neither SBI-553 nor SR142948A stimulated
effect of pretreatment on NTS-induced pERK (NTSR1 [4]; [18]): abolished
block of NTS- and SBI-553-induced NTSR1 internalization (NTSR1 [5]; NTS 10 nM or SBI-553 10 μM): antagonized NTS-induced, but not SBI-553-induced
displacement of [3H]SBI-553 from NTSR1 (NTSR1 [6]; 100 nM [3H]SBI-553, 10 μM unlabeled competitor, YOx beads): not displaced
effect on NTS-induced IP3 production (NTSR1 [7]): attenuated
IP3 generation (NTSR1 [7]): neither SBI-553 nor SR142948A stimulated
block of NTS- and SBI-553-induced β-arrestin2 recruitment to NTSR1 (NTSR1 [8]): antagonized NTS-induced, but not SBI-553-induced

COc1ccccc1C1CCN(c2nc(C3(F)CC3)nc3ccc(N(C)CCO)cc23)CC1 [SBI-553]
locomotor response vs vehicle in non-stimulant exposed animals (C57BL/6J mice [9]): comparable
cocaine-induced hyperlocomotion (C57BL/6J mice [9]; cocaine 30 mg/kg i.p.): attenuate cocaine-induced hyperlocomotion
methamphetamine-induced hyperlocomotion (C57BL/6J mice [9]; methamphetamine 2 mg/kg): reduced
effect on NTS-induced Gq activation (NTSR1 [1]): attenuated
Gq activation (NTSR1 [1]): neither SBI-553 nor the antagonist SR142948A had any effect
β-arrestin2 translocation in U2OS cells lacking NTSR1 (NTSR1 [2]; NTS 200 nM, SBI-553 7.5 μM, 40 min): Neither NTS nor SBI-553 treatment stimulated β-arrestin2 translocation
β-arrestin2 translocation (NTSR1 [2]): stimulated β-arrestin2 translocation to the plasma membrane
effect of pretreatment on NTS-induced β-arrestin2 translocation (NTSR1 [2]; [19]): enhanced
NTSR1 phosphorylation (phosphothreonine blot) (NTSR1 [10]): resulted in NTSR1 phosphorylation
methamphetamine-induced hyperlocomotion (β-arrestin2 KO mice; A2aR-Cre animals (deletion in striatal D2R-expressing neurons)): no SBI-553 effects were observed
methamphetamine-induced hyperlocomotion (β-arrestin2 KO mice; D1RCre animals (β-arrestin2 deletion in D1R-expressing neurons)): effectively reduced
methamphetamine-induced hyperlocomotion (β-arrestin2 KO mice; D2R-Cre mice (β-arrestin2 deletion in D2R-expressing neurons)): failed to affect locomotion
methamphetamine-induced hyperlocomotion (β-arrestin2 KO mice; DAT-Cre mice (deletion in midbrain D2R-expressing neurons)): reduced the methamphetamine-induced hyperlocomotion
cocaine-induced hyperlocomotion (β-arrestin2 KO mice; WT mice on C57BL/6J background): decrease
methamphetamine-induced hyperlocomotion (β-arrestin2 KO mice; WT mice on C57BL/6J background, methamphetamine 2 mg/kg i.p.): decrease
cocaine-induced hyperlocomotion (β-arrestin2 KO mice; global β-arrestin2 knockout mice): a significant reduction in locomotion was absent
methamphetamine-induced hyperlocomotion (β-arrestin2 KO mice; global β-arrestin2 knockout mice, methamphetamine 2 mg/kg i.p.): a significant reduction in locomotion was absent
methamphetamine-induced hyperlocomotion (β-arrestin2 KO mice; β-arrestin2 f/f Cre negative littermate controls): effectively reduced
lever discrimination (percent responses at active and inactive levers) (C57BL/6J mice [11]; 12 mg/kg i.p., 3-day test): lever discrimination was unchanged
activity at the inactive lever (C57BL/6J mice [11]; [20]): unchanged across treatments
cocaine intake, level of the vehicle control (C57BL/6J mice [11]; [20]): less than 20%
latency to initiate lever responding (C57BL/6J mice [11]; [20]): increased the latency to initiate lever responding
percent of lever responses during the post-reinforcement cue period (C57BL/6J mice [11]; [20]): reduced the percent of lever responses that occurred during the post-reinforcement cue period
cumulative self-administered cocaine reinforcements (C57BL/6J mice [11]; 12 mg/kg i.p., cocaine 0.1 mg/kg/infusion, FR4, 60 min session): fewer cumulative self-administered reinforcements between 20 and 60 min
total and active lever responses (C57BL/6J mice [11]; 12 mg/kg i.p., cocaine 0.1 mg/kg/infusion, relative to Vehicle and No Treatment): significantly suppressed total and active lever responses
cocaine self-administration at the highest cocaine dose (C57BL/6J mice [11]; SBI-553 2, 6, 12 mg/kg i.p., cocaine 1 mg/kg/infusion): No change in self-administration
lever accuracy (C57BL/6J mice [11]; SBI-553 2, 6, 12 mg/kg i.p., cocaine 0.1-1 mg/kg/infusion): not altered by SBI-553 treatment
cocaine self-administration dose-response (C57BL/6J mice [11]; SBI-553 6, 12 mg/kg, cocaine 0.1, 0.3, 0.5 mg/kg/infusion): greater efficacy at lower cocaine infusion doses
L-DOPA-induced restoration of locomotion (DAT KO mice): attenuated
peak systolic pressure vs vehicle (C57BL/6J mice [12]): no differences
righting reflex (C57BL/6J mice [13]): failed to influence
core body temperature (C57BL/6J mice [14]): no effect on core body temperature
effect on NTS-induced Ca2+ mobilization (NTSR1 [3]): attenuated
Ca2+ mobilization (NTSR1 [3]): neither SBI-553 nor SR142948A stimulated
pERK generation (NTSR1 [4]; HEK293T cells expressing human NTSR1, ligand alone, NTS 10 nM, SBI-553 10 μM): failed to elicit pERK generation
effect of pretreatment on NTS-induced pERK (NTSR1 [4]; [18]): blunted the early sharp peak in pERK
NTS-induced pERK, NTS alone vs NTS in combination with SBI-553 (NTSR1 [4]; HEK293 cells lacking the Gq/11 protein (Gq-null)): comparable pERK time courses
effect of pretreatment on NTS-induced pERK (NTSR1 [4]; β-arrestin1/2-null HEK293 cells): blocked in its entirety
NTSR1 internalization (NTSR1 [5]; ligand alone): stimulated NTSR1 internalization
effect of pretreatment on NTS-induced NTSR1 internalization (NTSR1 [5]; [19]): enhanced
effect on total [3H]NTS binding (NTSR1 [6]; 5 nM [3H]NTS, 10 μM unlabeled ligand): increased total [^3H]NTS binding
increase of NTS affinity for NTSR1 (Kd) (NTSR1 [6]; [21]): up to 3.9 fold
increase of number of available [3H]NTS binding sites (Bmax) (NTSR1 [6]; [21]): up to 3.3 fold
wire-hang test, latency to grasp the wire (C57BL/6J mice [15]): failed to influence
expression of methamphetamine conditioned place preference (C57BL/6J mice [16]): blocked the expression of methamphetamine conditioned place preference
effect on NTS-induced IP3 production (NTSR1 [7]): attenuated
IP3 generation (NTSR1 [7]): neither SBI-553 nor SR142948A stimulated
PD149163-induced reduction in core body temperature (C57BL/6J mice [17]): dose-dependently attenuated
PD149163-induced reduction in horizontal activity in the open field (C57BL/6J mice [17]): dose-dependently attenuated
β-arrestin2 recruitment to NTSR1 (NTSR1 [8]; ligand alone): stimulated β-arrestin2 recruitment
effect of pretreatment on NTS-induced β-arrestin2 recruitment to NTSR1 (NTSR1 [8]; low-concentration NTS): enhanced
